The source of these data is patent publication US7420031B2, “Intracellular delivery of small molecules, proteins, and nucleic acids” (Lonza Walkersville, Inc., priority 2003, dated 2008).

In data set [1] the test system is NIH 3T3 cells. The note with it: PTD without cargo moiety, 0-1000 nM (nanomolar range), 48 hours. How it is done:
PTDs (SEQ ID NOS:7 and 10), in the absence of a cargo moiety, were added to NIH 3T3 cultures at final concentrations ranging from 0-1000 nM to determine if the PTDs were cytotoxic. NIH 3T3 cells were seeded and incubated overnight, and the peptides were added to the cultures. The cells were incubated for 48 hours, and cell viability was determined using an Alamar blue assay.

For the next data set, the system named is 293 HEK cells. Briefly: PTD-mediated transport of streptavidin-β-galactosidase into 293 HEK cells (lysate absorbance at 405 nm). Type of data set: cell-based. The conditions noted are these: 50 nM complex with streptavidin-β-galactosidase, 30 minutes at 37° C. On the procedure:
To determine the effect of biotin location on transduction efficiency, biotin was added to either the amino terminus or the carboxy terminus of three PTDs. A (Gly)3 linker was added to the amino terminus for N-terminal biotinylated peptides. For C-terminal biotinylation, the last glycine in the C-terminal linker was replaced by lysine. The side chain of lysine was used for the attachment of the biotin group. A peptide with negligible transduction activity (Mi et al., Mol. Ther., 2:339-347, 2000) (SEQ ID NO:6) was used as a negative control. PTDs and β-galactosidase were complexed together with a streptavidin-biotin bridge.
To test for transduction efficiency, 293 HEK cells were seeded into a 96-well plate at approximately 4500 cells/well and incubated overnight. To prepare peptide complexes, equimolar concentrations of biotinylated PTD and streptavidin-crosslinked β-galactosidase were mixed and diluted in cell culture medium. The mixtures were incubated for 30 minutes at 37° C. to allow formation of complexes. Each complex was added to a final concentration of 50 nM and incubated for 30 minutes at 37° C. To assay for β-galactosidase activity, the cells were washed 3 times with PBS and were lysed with 100 μl of assay reagent (Pierce). […] The absorbance at 405 nm was measured on a Wallac Victor spectroluminometer.

The subject of the next data set is human dermal fibroblasts. Briefly: Histochemical staining for β-galactosidase in cells transduced with PTD complex. Type of data set: cell-based. The conditions noted are these: 50 nM complex with streptavidin-β-galactosidase, 1 hour at 37° C., light microscopy. On the procedure: To determine the efficiency of transduction based on the percentage of cells that receive the reporter protein, cells were assayed by histochemical staining for the reporter protein.
HUVEC and human dermal fibroblast cells were each seeded at 40,000 per well of a 24-well plate and incubated overnight. PTD complexes (SEQ ID NO:7-streptavidin-β-galactosidase or SEQ ID NO:6-streptavidin-β-galactosidase) were added to the wells at a final concentration of 50 nM and incubated for 1 hour at 37° C. The cells were washed 3 times in PBS, fixed, and stained for β-galactosidase using a β-galactosidase staining set (Roche) according to the manufacturer's instructions. Following development of β-galactosidase activity, the cells were washed with PBS and visualized by light microscopy.

For data set [2] the following is noted: Mi et al., Mol. Ther., 2:339-347, 2000; cited from earlier work.
The subject of data set [3] is NIH 3T3 cells. The note with it: 20 nM complex with streptavidin-linked β-galactosidase, 1 hour at 37° C.
Description: To determine the intracellular location of the complex, cells were immunostained for streptavidin. NIH 3T3 cells were seeded into 24-well tissue culture plates and incubated overnight. The cells were treated with 20 nM PTD-cargo moiety complex comprising the polypeptide sequence shown in SEQ ID NO:14 and streptavidin-linked β-galactosidase for 1 hour at 37° C. The cells were washed 3 times with PBS, and non-specific binding was blocked by a 30 minute incubation with normal goat serum at room temperature. Mouse anti-streptavidin monoclonal antibody (Monosan, Catalog No. 5043) was diluted to 1 μg/ml with PBS containing 20% normal goat serum. The diluted monoclonal antibody was added to the cells, and the cells were incubated for 1 hour at room temperature.
The cells were washed 3 times with PBS and a secondary Alexa Fluor 568 conjugated goat anti-mouse IgG (Molecular Probes, Catalog No. A-11019) was diluted 1:200 in PBS with 20% normal goat serum. Following a 30 minute incubation at room temperature, the cells were washed 3 times with PBS and visualized by fluorescent microscopy.
Data set [4] concerns NIH 3T3 cells. Briefly: PTD-β-galactosidase transduction into NIH 3T3 cells (lysate absorbance at 405 nm). In kind it is cell-based. The conditions noted are these: general statement in description. How it is done: N-terminally biotinylated direct and inverted isomers were compared to determine the transduction efficiency of inverted isomers of PTDs. PTDs and β-galactosidase were complexed together with a streptavidin-biotin bridge. NIH 3T3 cells were seeded into a 96-well plate and incubated as described above. The PTD-β-galactosidase complexes were formed (as described in Example 1) and added to a final concentration of 12.5 nM. […] The lysis reaction was stopped and the absorbance at 405 nm was measured. The transduction activity of inverted isomers is stronger than the transduction activity of direct PTDs.
The activities of 2 PTDs were compared to determine if the introduction of a lysine residue juxtaposed to the biotin moiety affects transduction activity. The pairs of peptides differed by a glycine to lysine substitution within the biotin peptide linker. PTDs and β-galactosidase were complexed together with a streptavidin-biotin bridge. NIH 3T3 cells were seeded as described above. […] The lysis reaction was stopped, and the absorbance at 405 nm was measured. The presence of a lysine residue juxtaposed to the biotin caused about a two-fold enhancement in transduction activity.
To further study the role of the lysine residue located in the biotin linker, the indirect PTDs and the direct PTDs with a lysine residue in the linker were compared. […]

The subject of data set [5] is NIH 3T3 cells. The note with it: 20 nM complex with streptavidin-β-galactosidase, 1 hour at 37° C.
Description: The transport activities of PTDs were compared to determine if introduction of a nuclear localization signal affect translocation of a PTD-cargo moiety complex. The cargo moiety was streptavidin-linked β-galactosidase. The cargo moiety was streptavidin-linked β-galactosidase. The peptides differed by the position of the nuclear localization signal. The nuclear localization signal was located on the amino terminus (down-stream of a lysine linker) or the carboxy terminus. NIH 3T3 cells were seeded as described above. Each PTD complex was added to a final concentration of 20 nM, and the cells were incubated for 1 hour at 37° C. Following incubation, the cells were washed 3 times in PBS and assayed for nuclear localization of β-galactosidase. β-galactosidase activity was measured at 405 nm in a colorimetric assay.
Peptides containing two nuclear localization signals were tested to study the role of the multiple nuclear localization signals on peptide transport. NIH 3T3 cells were seeded as described above. A PTD-β-galactosidase complex was added to a final concentration of 20 nM, and the cells were incubated for 1 hour at 37° C. Following incubation, the cells were washed 3 times in PBS and assayed for nuclear localization of β-galactosidase.
A further data set relates to plasma membrane. The note with it: Wender et al., Proc. Natl. Acad. Sci USA 97:13003-13008, 2000; cited from earlier work.

Where a SMILES comes first, the peptide text is derived from it. Where no end group is shown, it is not given here. The star is where a group is joined. Biotin = O=C1N[C@H]2[C@H](CS[C@H]2CCCCC(=O)*)N1

As to `CSCC[C@H](NC(=O)[C@H](CC(C)C)NC(=O)[C@H](CCCCN)NC(=O)[C@H](CO)NC(=O)[C@@H](NC(=O)[C@H](CCCNC(=N)N)NC(=O)[C@H](CCCNC(=N)N)NC(=O)[C@H](CCC(N)=O)NC(=O)[C@H](CCCNC(=N)N)NC(=O)[C@@H](N)CCCNC(=N)N)[C@@H](C)O)C(=O)N[C@@H](CCCCN)C(=O)N[C@@H](CCCNC(=N)N)C(=O)NCC(=O)NCC(=O)N[C@@H](CCCCNC(=O)CCCC[C@@H]1SC[C@@H]2NC(=O)N[C@@H]21)C(=O)O` [SEQ ID NO:11, Arg-Arg-Gln-Arg-Arg-Thr-Ser-Lys-Leu-Met-Lys-Arg-Gly-Gly-Lys-Biotin] (H-RRQRRTSKLMKRGGK(Biotin)-OH), the “effect on cell growth / cell viability” value with NIH 3T3 cells [1] was “did not inhibit cell growth”. On to Biotin-GGGYARAAARQARA [SEQ ID NO:9], for which the “function as a PTD (amount of β-galactosidase in the cell lysate vs negative control SEQ ID NO:6)” value in the data set on 293 HEK cells is “did not function as a PTD”. “Biotin-Gly-Gly-Gly-Tyr-Gly-Arg-Lys-Lys-Arg-Arg-Gln-Arg-Arg-Arg [SEQ ID NO:7]”: the “β-galactosidase reporter protein staining of cells” value with human dermal fibroblasts was “positive”.

As to Biotin-GGARPLEHGSDKAT [SEQ ID NO:6], in data set [2], the transduction activity entry is on record as “negligible”.

For Biotin-KGGRKMLKSTRRQRR [SEQ ID NO:14], the “intracellular location of the complex” value in the data set on NIH 3T3 cells [3] is on record as “localized to the cytoplasm”. For RKMLKSTRRQRR [SEQ ID NO:1], the “ability to function as a PTD relative to tat (SEQ ID NO:24) and WO 01/15511 peptide (SEQ ID NO:25)” value in the data set on NIH 3T3 cells [4] is on record as “more efficiently”.

Regarding “Biotin-KGGRKMLKSTRRQRRKKKRKV [SEQ ID NO:19]”, the “translocation of the complex, effect of nuclear localization signal and its position” value in the data set with NIH 3T3 cells [5] is reported as “functioned much better”. With “SEQ ID NO:23: a reverse isomer of a tat-derived peptide (reverse tat), Wender et al. (RRRQRRKKRGY; Human immunodeficiency virus)”, the “efficiency of crossing the plasma membrane relative to tat (SEQ ID NO:24)” value in the data set with plasma membrane is given as “about three times”. On to `N=C(N)NCCC[C@H](NC(=O)CNC(=O)[C@@H](N)Cc1ccc(O)cc1)C(=O)N[C@@H](CCCCN)C(=O)N[C@@H](CCCCN)C(=O)N[C@@H](CCCNC(=N)N)C(=O)N[C@@H](CCCNC(=N)N)C(=O)N[C@@H](CCC(N)=O)C(=O)N[C@@H](CCCNC(=N)N)C(=O)N[C@@H](CCCNC(=N)N)C(=O)N[C@@H](CCCNC(=N)N)C(=O)NCC(=O)NCC(=O)N[C@@H](CCCCNC(=O)CCCC[C@@H]1SC[C@@H]2NC(=O)N[C@@H]21)C(=O)O` [SEQ ID NO:8, Tyr-Gly-Arg-Lys-Lys-Arg-Arg-Gln-Arg-Arg-Arg-Gly-Gly-Lys-Biotin], for which, in the data set on NIH 3T3 cells [1], the “effect on cell growth / cell viability” value is “did not inhibit cell growth”.
